Experimental data as given in PMC10460844, “Real‐Time Monitoring of Multitarget Antimicrobial Mechanisms of Peptoids Using Label‐Free Imaging with Optical Diffraction Tomography” (Advanced Science, 2023).
Square brackets hold non-standard residues; d marks the D form. Peptide text beside a SMILES is read from it. Gly(N(CH2)2(3-indolyl)) = O=C(O)CNCCc1c[nH]c2ccccc12; Nspe = C[C@H](NCC(=O)O)c1ccccc1; Nlys = NCCCCNCC(=O)O

What was measured:
Assay type in all cases: cell-based
[1] = test system: HaCaT human keratinocytes; assay: MTS cytotoxicity assay; conditions: 24 h exposure in DMEM, concentration killing 50% of cells
Procedure: 4. Cell culture and cytotoxicity test using MTS assay
(Seoul, South Korea), human keratinocytes (HaCaT) were provided by the Skin Research Institute R&D Center of Amore Pacific Company (Yongin, South Korea). All cells were grown in Dulbecco's modified Eagle’s medium (DMEM) supplemented with 10% fetal bovine serum at 37 °C in an atmosphere containing 5% CO2. The 3-(4,5-dimethylthiazol-2- […]
assays were used to determine the effects of peptoids on cell growth.[4] Aliquots (100 µL) of media containing 1.3×10^4 MRC-5 cells/mL or 3×10^4 HaCaT cells/mL were distributed into each well of a 96-well plate (Eppendorf, Hamburg, Germany). The cells were allowed to attach and were grown in a humidified atmosphere containing 5% CO2 at 37 °C for 24 h.
When the cell density reached approximately 70% confluency, the medium was replaced with serial dilutions of the peptoid stock in DMEM and incubated for an additional 24 h. […] The MTS-formazan products in viable cells were measured at 490 nm using a microplate reader, and the percentage of cell viability (%) was calculated by comparing readings to the values of untreated wells. Percentage values of cell viability were calculated as A/(A control)×100, where A is the absorbance of the test well and A control is the average absorbance of wells containing untreated cells. […]

[2] = test system: E. coli ATCC 25922; assay: Killing kinetics; conditions: 4 × MIC, E. coli ATCC 25922, MHB2, 37 °C, CFU counting, triplicates
Procedure: structure of peptoids. SAXS data on peptoids in aqueous environment at different peptoid concentrations (indicated in legends), plotted together with best fit. a) 11 b) 29.
14. In vitro biological assays
The kinetics of antimicrobial activity against E. coli (ATCC 25922) were assessed at a […]
Briefly, an overnight culture of bacteria was diluted at mid log-phase bacteria (2–5 × 10^5 cfu/mL) and incubated with peptoid with desired concentration in MHB2. The bacterial suspension was added to a 96-well polypropylene u- bottomed plate containing the peptoid. The plate was incubated without shaking at 37 °C for 4 h. Samples (20 μl) were taken at time 0.5, 1, 2 and 4 h and diluted in ice PBS buffer from which 100 μl was plated on LB agar plates. The plates were incubated for 18–24 hours at 37 °C and colony forming units (CFU) were counted. The experiment was conducted triplicates, and a curve was plotted between CFU and time (h).
The ability of peptoids to increase the permeability of the outer membrane of Gram-negative bacteria was determined by measuring the incorporation of the NPN fluorescent dye into the outer membrane of E. coli ATCC 25922. Bacterial cells were suspended to a final concentration of OD600 = 0.05 in 5 mM HEPES buffer, pH 7.2, containing 5 mM KCN. Then […]
(1 picture or pasted object on this page, not shown here)

[3] = test system: E. coli ATCC 25922; conditions: ODT, 30 min treatment; buforin-II 25 µM, melittin 25 µM, 29 4 × MIC
Procedure: Three‐dimensional (3D) optical diffraction tomography (ODT) and fluorescence images of live bacterial cells were obtained using an HT‐2H Mach−Zehnder interferometric microscope, combining both ODT and fluorescence imaging into a single unit (Tomocube, Daejon, South Korea). 3D Fluorescence imaging was carried out, using three light sources (385, 470, and 565 nm) via serial fluorescence image acquisition in multiple planes followed by 3D deconvolution. 3D correlative imaging, using a combination of ODT and fluorescence imaging was performed using commercial software (TomoStudioTM, Tomocube) as described previously^[ [23c] ^] Bacterial cells were grown overnight and diluted (≈10^7 CFU mL^−1) in cation‐adjusted MHB2 media. The cells were loaded onto 50 mm imaging dishes with a #1.5H glass coverslip bottom (TomoDish, Tomocube) that were precoated with 0.01% (w/v) poly‐L‐lysine (Sigma‐Aldrich) in water. After 30 min incubation at room temperature, the coverslips were washed twice with PBS (pH 7.4) to remove unattached cells, and the media was replaced with PBS for the duration of the imaging. To monitor the change in bacterial morphology, bacterial cells were treated with a peptoid (or with control AMPs) in PBS containing FM4‐64 (10 µg mL^−1) or propidium iodide (10 µg mL^−1). To analyze 3D refractive index (RI) tomograms, individual bacteria were captured using ODT equipped with a digital micromirror device (Tomocube). In more detail, the light scattered by the bacterial cells was collected by an objective lens (NA = 1.2, water dipping, UPLSAPO 60XW, Olympus) and recorded by a digital image sensor (CMOS camera, FL3‐U313Y3M‐C, FLIR Systems). Using a field retrieval algorithm, the amplitude and phase images were retrieved from the obtained multiple holograms, and then the 3D RI distribution was determined.
The analysis tool in the TomoStudio software (Tomocube) was used to measure specific values, including the refractive index (RI) and the cell volume of bacteria. These values were determined from RI increments (RII) of 0.190 fL pg^−1, which is known as a representative value and was assumed to be the same for most proteins.^[ [46] ^]

Row | Structure (SMILES) | LC50 HaCaT [1] | time to complete eradication of bacteria [2] | change of cell volume [3] | change of mean RI value versus control cells [3]
1 | C[C@@H](c1ccccc1)N(CC(N)=O)C(=O)CN(C(=O)CN(CCCCN)C(=O)CN(C(=O)CN(C(=O)CN(CCCCN)C(=O)CN(C(=O)CN(C(=O)CN(CCCCN)C(=O)CN(C(=O)CN(C(=O)CNCCCCN)[C@@H](C)c1ccccc1)[C@@H](C)c1ccccc1)[C@@H](C)c1ccccc1)[C@@H](C)c1ccccc1)[C@@H](C)c1ccccc1)[C@@H](C)c1ccccc1)[C@@H](C)c1ccccc1 [peptoid 1, reference compound] (H-[Nlys][Nspe][Nspe][Nlys][Nspe][Nspe][Nlys][Nspe][Nspe][Nlys][Nspe][Nspe]-NH2) | 7.3 µM |  |  | 
2 | C[C@@H](c1ccccc1)N(CC(=O)N(CCCCN)CC(=O)N(CCc1c[nH]c2ccccc12)CC(=O)N(CCc1c[nH]c2ccccc12)CC(N)=O)C(=O)CN(CCCCN)C(=O)CN(CCCCN)C(=O)CN(C(=O)CN(C(=O)CN(CCCCN)C(=O)CN(C(=O)CN(C(=O)CNCCCCN)[C@@H](C)c1ccccc1)[C@@H](C)c1ccccc1)[C@@H](C)c1ccccc1)[C@@H](C)c1ccccc1 [peptoid 29] (H-[Nlys][Nspe][Nspe][Nlys][Nspe][Nspe][Nlys][Nlys][Nspe][Nlys][Gly(N(CH2)2(3-indolyl))][Gly(N(CH2)2(3-indolyl))]-NH2) |  | 4 h | notable reduction in cell volume | significantly increased mean RI values
